{"source": "paper PMC8359378", "about": "(British Journal of Clinical Pharmacology, 2021)", "key": {"[1]": {"system": "activated partial thromboplastin time (aPTT)", "assay": "activated partial thromboplastin time", "type": "in vivo, human"}, "human FXIa": {"molecular_target": "human FXIa", "conditions": "competitive and reversible inhibition; cited from earlier work"}, "[2]": {"system": "rabbit abdominal incision bleeding model", "conditions": "in combination with clopidogrel; cited from earlier work"}, "[3]": {"conditions": "Part A, single dose 5 mg, fasted"}, "[4]": {"conditions": "Part A, single dose 20 mg, fasted"}, "[5]": {"conditions": "Part A, single dose 80 mg, fasted"}, "[6]": {"conditions": "Part A, single dose 150 mg, fasted"}}}
{"smiles": "Nc1ccc(-c2nc([C@H]3CCc4cc(-c5cc(Cl)ccc5-n5cnnn5)cc(=O)n43)c(F)[nH]2)c(F)n1", "note": "[ONO‐7684]", "values": [{"measurement": "time of maximal prolongation of aPTT post‐dose", "setting": "[1]; Part A, 80 mg fed group", "result": "approximately 8 hours"}, {"measurement": "aPTT Day 1 24 hours RTB, mean ± SD", "setting": "[1]; Part A, single dose 1 mg, fasted", "result": "1.00 ± 0.034"}, {"measurement": "aPTT Day 1 24 hours RTB, mean ± SD", "setting": "[1]; [3]", "result": "1.10 ± 0.061"}, {"measurement": "aPTT Maximum on treatment RTB, mean ± SD", "setting": "[1]; [3]", "result": "1.18 ± 0.054"}, {"measurement": "aPTT Day 1 24 hours RTB, mean ± SD", "setting": "[1]; [4]", "result": "1.15 ± 0.119"}, {"measurement": "aPTT Maximum on treatment RTB, mean ± SD", "setting": "[1]; [4]", "result": "1.40 ± 0.016"}, {"measurement": "aPTT Day 1 24 hours RTB, mean ± SD", "setting": "[1]; [5]", "result": "1.54 ± 0.111"}, {"measurement": "aPTT Maximum on treatment RTB, mean ± SD", "setting": "[1]; [5]", "result": "1.83 ± 0.172"}, {"measurement": "aPTT Day 1 24 hours RTB, mean ± SD", "setting": "[1]; Part A, single dose 80 mg, fed", "result": "1.61 ± 0.128"}, {"measurement": "aPTT Maximum on treatment RTB, mean ± SD", "setting": "[1]; Part A, single dose 80 mg, fed", "result": "1.74 ± 0.163"}, {"measurement": "aPTT Day 1 24 hours RTB, mean ± SD", "setting": "[1]; [6]", "result": "1.63 ± 0.031"}, {"measurement": "aPTT Maximum on treatment RTB, mean ± SD", "setting": "[1]; [6]", "result": "1.97 ± 0.078"}, {"measurement": "aPTT Day 1 24 hours RTB, mean ± SD", "setting": "[1]; Part A, single dose 300 mg, fasted", "result": "1.99 ± 0.139"}, {"measurement": "time of maximal prolongation of aPTT post‐dose", "setting": "[1]; Part A, single dose of 20–300 mg", "result": "approximately 4 hours"}, {"measurement": "aPTT Maximum on treatment RTB, mean ± SD", "setting": "[1]; Part B, 80 mg QD for 14 days, fed", "result": "2.07 ± 0.152"}, {"measurement": "aPTT Day 1 24 hours RTB, mean ± SD", "setting": "[1]; Part B, 80 mg QD, fed", "result": "1.53 ± 0.119"}, {"measurement": "aPTT Day 14 24 hours RTB, mean ± SD", "setting": "[1]; Part B, 80 mg QD, fed", "result": "1.87 ± 0.163"}, {"measurement": "aPTT Maximum on treatment RTB, mean ± SD", "setting": "[1]; Part B, 150 mg QD for 14 days, fed", "result": "2.35 ± 0.275"}, {"measurement": "aPTT Day 1 24 hours RTB, mean ± SD", "setting": "[1]; Part B, 150 mg QD, fed", "result": "1.78 ± 0.174"}, {"measurement": "aPTT Day 14 24 hours RTB, mean ± SD", "setting": "[1]; Part B, 150 mg QD, fed", "result": "2.06 ± 0.261"}, {"measurement": "aPTT Day 1 24 hours RTB, mean ± SD", "setting": "[1]; Part B, 250 mg QD, fed", "result": "2.06 ± 0.091"}, {"measurement": "aPTT Day 14 24 hours RTB, mean ± SD", "setting": "[1]; Part B, 250 mg QD, fed", "result": "2.53 ± 0.146"}, {"measurement": "time of maximal aPTT prolongation post‐dose", "setting": "[1]; Part B, first dose of 80, 150 and 250 mg", "result": "approximately 4 hours"}, {"measurement": "Ki", "setting": "human FXIa", "result": 2, "unit": "nM"}, {"measurement": "bleeding risk compared with rivaroxaban", "setting": "[2]", "result": "lower bleeding risk than rivaroxaban"}]}
